In brackets after ≈: the same amount, converted by molar mass. Where only a bound is given, the exact number is not on record here.

For data set [1], the target named is Aurora kinase B (Homo sapiens) (UniProt Q96GD4). Nature of the data set: Inhibition of AURKB (unknown origin) at 500 nM.
The target in data set [2] is Focal adhesion kinase 1 (Homo sapiens) (UniProt Q05397). As to the kind of experiment: Inhibition of PTK2 (unknown origin) at 500 nM.
Data set [3] addresses T1, Ephrin type-A receptor 1 (Homo sapiens) (UniProt P21709).
T1 sequence (whole entry): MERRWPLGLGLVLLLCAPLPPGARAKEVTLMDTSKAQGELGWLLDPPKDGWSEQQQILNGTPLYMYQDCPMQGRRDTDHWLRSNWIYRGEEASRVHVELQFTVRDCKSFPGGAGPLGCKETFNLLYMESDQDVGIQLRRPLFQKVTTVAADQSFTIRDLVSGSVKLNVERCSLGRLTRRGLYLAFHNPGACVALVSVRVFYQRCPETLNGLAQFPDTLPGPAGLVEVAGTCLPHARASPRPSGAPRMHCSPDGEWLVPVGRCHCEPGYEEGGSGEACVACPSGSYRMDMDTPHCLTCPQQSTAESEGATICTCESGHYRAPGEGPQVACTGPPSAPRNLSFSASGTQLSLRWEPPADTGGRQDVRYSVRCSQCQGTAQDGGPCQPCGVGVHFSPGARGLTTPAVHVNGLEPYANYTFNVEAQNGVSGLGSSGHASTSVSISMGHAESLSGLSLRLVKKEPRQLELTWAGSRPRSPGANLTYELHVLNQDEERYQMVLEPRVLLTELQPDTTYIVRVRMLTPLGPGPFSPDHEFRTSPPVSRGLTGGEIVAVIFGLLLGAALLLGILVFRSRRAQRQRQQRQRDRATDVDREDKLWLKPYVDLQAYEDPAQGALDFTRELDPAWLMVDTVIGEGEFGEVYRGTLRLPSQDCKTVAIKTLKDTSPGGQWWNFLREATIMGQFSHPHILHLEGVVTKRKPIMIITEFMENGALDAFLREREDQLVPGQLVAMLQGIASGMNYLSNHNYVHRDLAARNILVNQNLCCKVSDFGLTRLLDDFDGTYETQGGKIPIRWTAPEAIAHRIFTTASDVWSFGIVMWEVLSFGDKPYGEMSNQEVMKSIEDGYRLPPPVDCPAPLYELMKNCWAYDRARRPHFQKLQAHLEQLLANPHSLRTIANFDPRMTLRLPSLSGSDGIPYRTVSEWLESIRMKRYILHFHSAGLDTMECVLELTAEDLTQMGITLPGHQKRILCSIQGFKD
As to the kind of experiment: Inhibition of EPHA1 (unknown origin) at 500 nM.

Data set [4] can be described thus: Antiproliferative activity against human BT474 cells after 72 hrs by CellTiter blue assay. It counts as functional, cell-based. Conditions: BT-474, 72 h.
The nature of data set [5]: Antiproliferative activity against human Hs578T cells after 72 hrs by CellTiter-Glo assay. It counts as functional, cell-based. Conditions: Hs-578T. For orientation: Cellular ATP, detected with luciferase, serves as a proxy for viable cell number.
The nature of data set [6]: Antiproliferative activity against human SKBR3 cells after 72 hrs by CellTiter blue assay. It counts as functional, cell-based. As to conditions: SK-BR-3, 72 h.
Data set [7] in a line: Aqueous solubility of compound in 0.01 M PBS buffer at pH 7.4 after 2 hrs by turbidimetric assay. It counts as physicochemical.
The nature of data set [8]: Toxicity in zebrafish embryo assessed as morphological defects for 3.5 days. It counts as organism-based, Danio rerio.
Data set [9] can be described thus: Antiproliferative activity against human PC9 cells after 96 hrs by Sytox green marker based fluorescence analysis. It counts as functional, cell-based. Conditions: PC-9, 96 h.
For data set [10], the species on record is Danio rerio. Nature of the data set: Toxicity in zebrafish embryo assessed as effect on morphology upto 25 uM. It counts as organism-based. As to conditions: in vivo.
Another data set concerns H9. Nature of the data set: Antiproliferative activity against human H9 cells after 72 hrs by CellTiter-Glo assay. It counts as functional, cell-based. As to conditions: H9, 72 h.
Data set [11] in a line: Antiproliferative activity against human U937 cells after 72 hrs by CellTiter blue assay. It counts as functional, cell-based. As to conditions: U-937, 72 h. Background: The colour change of resazurin is a common sign of viable cells or microbes.
The species entered for data set [12] is Danio rerio. Nature of the data set: Toxicity in zebrafish embryo assessed as kinked tails at 50 and 100 uM. It counts as organism-based. As to conditions: in vivo.
A short description of data set [13]: Antiproliferative activity against human Calu3 cells after 72 hrs by CellTiter blue assay. Format: functional, cell-based. As to conditions: Calu-3, 72 h.
The next data set concerns SW480. Nature of the data set: Antiproliferative activity against human SW480 cells after 72 hrs by CellTiter-Glo assay. It counts as functional, cell-based. Conditions: SW480, 72 h.
Data set [14] can be described thus: Antiproliferative activity against human OVCAR3 cells after 72 hrs by CellTiter-Glo assay. It counts as functional, cell-based. Conditions: OVCAR-3, 72 h.
In data set [15] the target is MAP kinase-activated protein kinase 2 (Homo sapiens) (UniProt P49137). As to the kind of experiment: Inhibition of MAPKAPK2 (unknown origin) at 500 nM.
For the next data set, the system named is FaDu. Nature of the data set: Antiproliferative activity against human FADU cells. Format: functional, cell-based.
The test system of the next data set is MRC5. Nature of the data set: Antiproliferative activity against human MRC5 cells after 72 hrs by CellTiter-Glo assay. It counts as cell-based. As to conditions: MRC5, 72 h.
The nature of another data set: in vitro. Conditions: human, Caco-2.
Data set [16] can be described thus: Toxicity in zebrafish embryo assessed as survival for 3.5 days. Format: organism-based, Danio rerio. Conditions: in vivo.

Chain of Focal adhesion kinase 1 (Homo sapiens) (Q05397 2-1052 limits assumed): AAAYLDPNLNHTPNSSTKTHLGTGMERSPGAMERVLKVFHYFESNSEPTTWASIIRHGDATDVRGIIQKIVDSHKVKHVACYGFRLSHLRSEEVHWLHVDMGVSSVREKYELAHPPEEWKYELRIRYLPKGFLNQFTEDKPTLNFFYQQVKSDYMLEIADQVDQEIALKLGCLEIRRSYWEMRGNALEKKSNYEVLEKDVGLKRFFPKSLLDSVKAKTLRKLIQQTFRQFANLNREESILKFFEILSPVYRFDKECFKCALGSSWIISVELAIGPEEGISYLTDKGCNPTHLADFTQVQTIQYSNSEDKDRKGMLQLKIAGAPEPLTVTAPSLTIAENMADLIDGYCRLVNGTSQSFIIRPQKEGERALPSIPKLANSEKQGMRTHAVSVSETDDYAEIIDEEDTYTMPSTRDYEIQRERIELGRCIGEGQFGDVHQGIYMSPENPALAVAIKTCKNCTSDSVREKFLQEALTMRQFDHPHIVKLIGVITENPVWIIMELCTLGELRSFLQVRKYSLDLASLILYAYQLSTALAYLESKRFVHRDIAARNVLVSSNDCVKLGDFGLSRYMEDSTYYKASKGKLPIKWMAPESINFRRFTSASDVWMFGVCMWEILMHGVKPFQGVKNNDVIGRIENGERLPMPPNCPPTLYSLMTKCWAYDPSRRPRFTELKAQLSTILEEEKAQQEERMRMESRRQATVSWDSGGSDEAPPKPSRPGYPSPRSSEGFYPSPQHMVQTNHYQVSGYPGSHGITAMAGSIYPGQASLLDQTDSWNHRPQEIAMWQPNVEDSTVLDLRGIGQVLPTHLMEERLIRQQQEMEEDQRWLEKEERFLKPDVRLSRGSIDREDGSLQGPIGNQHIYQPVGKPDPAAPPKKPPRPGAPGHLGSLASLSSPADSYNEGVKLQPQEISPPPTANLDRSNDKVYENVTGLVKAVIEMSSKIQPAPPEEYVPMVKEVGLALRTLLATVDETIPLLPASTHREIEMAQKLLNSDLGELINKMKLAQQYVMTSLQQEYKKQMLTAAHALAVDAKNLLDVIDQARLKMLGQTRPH
Chain of MAP kinase-activated protein kinase 2 (Homo sapiens) (P49137 whole entry, looked up): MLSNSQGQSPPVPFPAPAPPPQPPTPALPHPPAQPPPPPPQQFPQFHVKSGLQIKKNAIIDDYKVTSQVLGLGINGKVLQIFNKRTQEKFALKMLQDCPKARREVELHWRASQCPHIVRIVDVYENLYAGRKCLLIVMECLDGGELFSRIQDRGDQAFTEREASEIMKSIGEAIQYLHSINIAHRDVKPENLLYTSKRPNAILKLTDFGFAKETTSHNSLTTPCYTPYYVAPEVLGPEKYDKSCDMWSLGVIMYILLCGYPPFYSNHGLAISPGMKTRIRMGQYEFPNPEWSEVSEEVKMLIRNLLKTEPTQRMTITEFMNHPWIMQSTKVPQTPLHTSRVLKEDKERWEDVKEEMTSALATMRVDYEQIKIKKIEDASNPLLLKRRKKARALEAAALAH
Chain of Aurora kinase B (Homo sapiens) (Q96GD4 whole entry): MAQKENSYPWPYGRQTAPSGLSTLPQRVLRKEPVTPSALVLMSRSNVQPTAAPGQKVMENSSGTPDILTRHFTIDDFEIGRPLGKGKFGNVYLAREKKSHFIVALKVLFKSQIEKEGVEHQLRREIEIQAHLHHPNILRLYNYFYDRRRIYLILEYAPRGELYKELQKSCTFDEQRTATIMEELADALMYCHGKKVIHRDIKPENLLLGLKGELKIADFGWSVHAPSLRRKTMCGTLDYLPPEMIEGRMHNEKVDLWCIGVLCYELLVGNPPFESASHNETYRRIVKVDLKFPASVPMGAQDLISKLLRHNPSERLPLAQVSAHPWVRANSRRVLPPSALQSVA
Description for in vitro: Efflux ratio of permeability from basolateral to apical side over apical to basolateral side in human Caco2 cells at 10 uM by LC-MS/MS analysis

For the compound `C[C@@H](Nc1ncnc2sc(-c3ccc(C(=O)NCCN(C)C)cc3)cc12)c1ccccc1`, the inhibition in data set [1] is 17%; in data set [2], 7%; in data set [3], 11%.

Turning to `C#Cc1cccc(Nc2ncnc3cc(OCCOC)c(OCCOC)cc23)c1` [ERLOTINIB], the inhibition was 44% in data set [1], -3% in [2], 3% in data set [3] and -1% in data set [15]. For the same compound, the IC50 in [4] is 13 µM; in data set [5], greater than 100 µM; in data set [6] it was greater than 100 µM; in data set [9] it was 0.07 µM; in the data set with H9 it was 1.3 µM; in data set [11], 9.9 µM. Also, the IC50 in data set [13] was 4.7 µM; with SW480, greater than 100 µM; in data set [14], 4.6 µM; with FaDu it was 18 µM; with MRC5 it was 5.8 µM. This compound also registered a solubility (kinetic) at 2 h in data set [7] of 20 µM (≈ 7.87 µg/mL). The EC50 at 3.5 days in data set [8] came to 60 µM. The figures for the Activity entry in the data set listed under Danio rerio [10] and in the data set filed under Danio rerio [12] were “Non-toxic” and “Toxic”, respectively.

Turning to `CN(C)CCNC(=O)c1ccc(-c2cc3c(N[C@H](CO)c4ccccc4)ncnc3s2)cc1`, the inhibition in data set [1] amounted to 23%; in data set [2], 7%; in data set [3], 15%; in data set [15], 2%. In data set [7], this compound returned a solubility (kinetic) at 2 h of 65 µM (≈ 30 µg/mL). In “in vitro”, the efflux ratio at 10 µM is greater than 20.

Consider `C[C@@H](Nc1ncnc2sc(-c3ccccc3C(N)=O)cc12)c1ccccc1`, for which the inhibition was 2% in data set [1], 5% in data set [2], 11% in [3] and -8% in data set [15].

Consider `COc1ccc(C(=O)NCCN(C)C)cc1-c1cc2c(N[C@H](C)c3ccccc3)ncnc2s1`, for which the inhibition in data set [1] is -2%; in data set [2] it was 3%; in [3] it was 7%; in data set [15], -1%. Also, the kinetic solubility at 2 h in data set [7] was greater than 100 µM. Moreover, the efflux ratio at 10 µM in “in vitro” was 63.

Consider `COc1cc(C(N)=O)ccc1-c1cc2c(N[C@H](CO)c3ccccc3)ncnc2s1`, for which the inhibition in data set [1] was 6%; in data set [2], 3%; in data set [3] it was 12%; in [15] it was -7%. Moreover, the EC50 at 3.5 days in [8] turned out to be 46 µM. For the same compound, the values for the Activity result in the data set listed under Danio rerio [10] and in the data set filed under Danio rerio [12] were “Non-toxic” and “Toxic”, respectively. Moreover, in data set [16], the LC50 at 84 h was greater than 100 µM.

As for `COc1cc(CO)ccc1-c1cc2c(Nc3ccc(F)c(Cl)c3)ncnc2s1`, the inhibition in [1] was found to be 7%; in data set [2], 16%; in data set [3] it was 12%; in data set [15], 3%. The compound also had a solubility (kinetic) at 2 h in data set [7] of 2 µM (≈ 0.832 µg/mL).

Consider `COc1cc(CO)ccc1-c1cc2c(Nc3ccccc3)ncnc2s1`, for which the inhibition is 10% in data set [1], 15% in [2], 13% in data set [3] and 4% in data set [15].

As to `C#Cc1cccc(Nc2ncnc3sc(-c4ccc(CO)cc4OC)cc23)c1`, the inhibition turned out to be 21% in data set [1], 0% in data set [2] and 2% in data set [3].

On to `COc1cc(CO)ccc1-c1cc2c(N[C@H](CO)c3ccccc3)ncnc2s1`, for which the inhibition in data set [1] stood at 10%; in [2], 1%; in data set [3] it was 1%; in data set [15] it was 8%. Also, the IC50 was found to be 11 µM in data set [4]; 43 µM in [5]; 17 µM in [6]; 0.09 µM in [9]; 12 µM in the data set with H9; 18 µM in [11]. Moreover, the IC50 is 4.2 µM in [13]; 19 µM in the data set with SW480; 9.7 µM in [14]; 43 µM with FaDu; 37 µM with MRC5. The EC50 at 3.5 days in data set [8] is 49 µM. For the same compound, the Activity result is “Non-toxic” in the data set filed under Danio rerio [10] and “Toxic” in the data set listed under Danio rerio [12]. Moreover, in data set [16], the LC50 at 84 h is greater than 100 µM.

Turning to `COc1cc(CO)ccc1-c1cc2c(N[C@H](C)c3ccccc3)ncnc2s1`, the inhibition in data set [1] is 1%; in data set [2], 6%; in data set [3], 1%; in data set [15], 1%.

A word on the inhibition: it is the drop in the measured response relative to a control, in per cent. Usually IC50 stands for the concentration needed to halve the response being measured. Lower therefore signals higher potency. As usually defined, the kinetic solubility is the concentration staying in solution when a stock, usually in DMSO, is diluted into the medium. The EC50 is the concentration needed to bring the measured effect to its halfway point. What is called efflux ratio is the permeability from basolateral to apical divided by that in the opposite direction, in the common usage. One may read the LC50 as the concentration lethal to half of the exposed cells or organisms.

Values taken from ChEMBL document CHEMBL3758163, “Extended structure-activity study of thienopyrimidine-based EGFR inhibitors with evaluation of drug-like properties” (Eur J Med Chem, 2016).
